Reference: the METLIN SMRT retention time set (Domingo-Almenara et al. 2019)

Assay: gradient 5% acetonitrile 3 min, to 50% in 2 min, to 85% in 15 min, held 3 min, 100 µL/min
Conditions: column: Zorbax Extend-C18 2.1 x 50 mm; eluents: water / acetonitrile, 0.1% formic acid
Method in brief: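 Retention time was recorded from adduct peaks, which were picked computationally and each inspected manually. Pure standards ran in mixtures of ~100 molecules on HPLC coupled to a quadrupole time-of-flight mass spectrometer, in positive and negative ionization mode, through a Zorbax Extend-C18 column (2.1 × 50 mm, 1.8 μm) at 100 μL/min. Eluents were water and acetonitrile, each with 0.1% formic acid.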

| RP-LC retention time [s] | SMILES |
| --- | --- |
| 769 | COC(=O)c1ccc(-c2nc3cnccn3c2Nc2ccc(OC)c(OC)c2)cc1 |
| 1080 | Cc1cc(C)c2c(N3CCCC3)nc(C(=O)N3CCN(c4ccccn4)CC3)nc2n1 |
| 807 | COc1ccc(N2CC(C(=O)N3CCc4cc(-c5ccno5)ccc43)CC2=O)cc1 (stereo not drawn) |
| 547 | Cc1nn(C)c(C)c1CCC(=O)NCCn1c(C)cnc1C1CCC1 |
| 618 | Cc1nc2cccnc2n1CCN1CCN(C(=O)Nc2ccc(F)c(Cl)c2)CC1 |
| 910 | CC(=O)Nc1ccc(S(=O)(=O)N2CCCn3nc(-c4cccc(Cl)c4)cc3C2)cc1 |
| 618 | O=C(Cn1cnc2nc(N3CCC(C(=O)NC4CC4)CC3)sc2c1=O)NCc1cccs1 |
| 997 | C=CCN1N=C(C(=O)N2CCC(C)CC2)S(=O)(=O)c2ccc(Cl)cc21 |
| 1270 | CCOC(=O)c1cnc(N2CCN(c3ccc(F)cc3)CC2)c2ccccc12 |
| 754 | Cc1ccsc1C(=O)N1C[C@H]2C[C@H](C1)[C@H]1CCCC(=O)N1C2 |
| 725 | Cc1ccc(CNS(=O)(=O)c2cc(-c3[nH]ncc3C(=O)N3CCCC3)oc2C)cc1 |
| 734 | Clc1ccc(-c2ccc(CNCc3ccccn3)o2)c(Cl)c1 |
| 628 | CCOC(=O)c1[nH]c(C)c(CCC(=O)N2CCC(C(=O)NCCOC)CC2)c1C |
| 785 | O=c1c2nc(-c3ccc4c(c3)OCO4)cn2ccn1-c1cccc(F)c1 |
| 828 | CCOC(=O)c1ccc2nc(NC(=O)c3ccn(C)n3)sc2c1 |
| 902 | O=c1c(S(=O)(=O)N2CCCC2)cccn1Cc1cccc(Cl)c1 |
| 792 | CC(C)(C)C(=O)N1CCC(C(=O)Nc2ccc(S(=O)(=O)N3CCCC3)cc2)CC1 |
| 767 | COCc1cc(=O)n(CC(=O)Nc2ccccc2)c(N2CCOCC2)n1 |
| 1130 | CCOc1ccc(-c2nc(-c3ccc4c(c3)oc(=O)n4C)no2)cc1 |
| 743 | CC(C)(C)OC(=O)N1CCN(c2ncc(C(=O)NCc3ccccc3)c(N)n2)CC1 |
| 701 | Cn1ccc2c(cc(C(=O)NCc3cc(F)cc(F)c3)n2C)c1=O |
| 722 | CN(C)c1cc(C(=O)NC2CC2)c2cc(F)ccc2n1 |

| RP-LC retention time [s] | SMILES |
| --- | --- |
| 833 | CCCc1noc(-c2ccc(-n3ncc(C(=O)N4CCOCC4)c3C)nc2)n1 |
| 667 | O=C(NCC(O)c1ccsc1)C1(c2ccccc2)CCOCC1 (stereo not drawn) |
| 876 | COc1ccc(CNC(=O)C2CCCN(c3ccc(=O)n(-c4cccc(Cl)c4)n3)C2)c(OC)c1 (stereo not drawn) |
| 651 | CN(C)CCn1nnc2cc(-c3noc(-c4ccc(F)cc4)n3)ccc21 |
| 1190 | O=C1COc2cc(Cl)ccc2N1Cc1nc(-c2ccc(F)c(Cl)c2)no1 |
| 791 | CCSc1nnc(-c2nn(C)c3c2CN(C(=O)C2CCCCC2)CC3)n1C |
| 1060 | CC(C)c1ccc(S(=O)(=O)N2CCC(n3c(-c4ccco4)nc4cccnc43)C2)cc1 (stereo not drawn) |
| 787 | Cc1cccc(CC(=O)N2C[C@@H]3C[C@H](NC(=O)c4cccs4)[C@H]2C3)c1 |
| 725 | CN1C(=O)C2(CCN(C(=O)c3ccc(C#N)cc3)C2)c2ccccc21 (stereo not drawn) |
| 606 | c1ccc2c(c1)nnn1c3cnccc3nc21 |
| 814 | O=C(Nc1cnn(-c2ncc(N3CCCCC3)cn2)c1)c1ccccn1 |
| 1260 | Cc1oc(-c2cccc(Cl)c2)nc1CN(c1ccccc1)S(=O)(=O)c1cccs1 |
| 599 | CCOC(=O)C1=C(CN2CCN(CC)CC2)NC(=O)NC1c1ccc(OC)cc1 (stereo not drawn) |
| 809 | CCOC(=O)c1nc(N2CCN(c3ccccc3OC)CC2)c2ccccc2n1 |
| 921 | COc1cc(CC(=O)N2CCc3cc(-c4ccno4)ccc32)cc(OC)c1 |
| 892 | Cc1oc2ncnc(N3CCCC(C(=O)NCc4ccccc4Cl)C3)c2c1C (stereo not drawn) |
| 1090 | Cc1ccc2c(c1)N(S(C)(=O)=O)CCC(C(=O)Nc1ccc(C(F)(F)F)cc1)O2 (stereo not drawn) |
| 870 | Cc1cc(C)n(Cc2nc(-c3ccc(NC(=O)c4ccc(C#N)cc4)cc3)oc2C)n1 |
| 808 | CCc1ccc(OCCS(=O)(=O)Nc2cc(NC(C)=O)ccc2OC)cc1 |
| 838 | CCC(=O)N1CCc2cc(CNS(=O)(=O)c3ccc(F)cc3)ccc21 |
| 870 | O=C1C(OC2CCN(S(=O)(=O)c3ccccc3Cl)CC2)CCN1CC1CC1 (stereo not drawn) |
| 751 | CC(=O)Nc1ccc(-n2cnc(C(=O)N3CCN(c4ccc(Cl)cc4)CC3)c2)nc1 |

| RP-LC retention time [s] | SMILES |
| --- | --- |
| 1030 | O=C(Cc1csc(Nc2ccc(Cl)cn2)n1)Nc1ccc(OC(F)(F)F)cc1 |
| 629 | COCC1CN(Cc2cc3ccc(C)cc3[nH]c2=O)CCC1(F)F (stereo not drawn) |
| 576 | COc1ccc(NC(=O)CCNc2cnc3cnccn23)c(C)c1 |
| 799 | CCC(C)NC(=O)c1ccc(-c2csc(C)n2)cc1 (stereo not drawn) |
| 637 | CN1C(=O)CCCCC1C(=O)NCc1cccs1 (stereo not drawn) |
| 926 | CC1CCN(S(=O)(=O)c2ccc3c(c2)CCCC(=O)N3CC(=O)NCc2ccc(F)cc2)CC1 |
| 686 | CCOC(=O)c1ccc(NC(=O)Cn2cnc3nc(-c4cccnc4)ncc3c2=O)cc1 |
| 698 | CC(=O)Nc1ncncc1N1CCC(C(=O)NCc2cccc(C(F)(F)F)c2)CC1 |
| 841 | Cc1cc(C)cc(N2CCCn3c2nc2c3c(=O)n(C)c(=O)n2C)c1 |
| 704 | O=C(NCC1CCN(S(=O)(=O)C2CC2)CC1)c1cnc2ccccc2n1 |
| 642 | CCc1ccc2[nH]c3c(c(=O)c2c1)CN(CC(=O)NCc1cccc(Cl)c1)CC3 |
| 722 | O=C(NCCn1c(-c2ccccc2)nc2cccnc21)Nc1ccc2c(c1)OCO2 |
| 603 | Cc1cccc(CN2CCC(CNC(=O)Nc3cn(C)c(=O)c4ccccc34)CC2)c1 |
| 624 | O=C(Nc1ccc(F)cc1)N1CCN(Cc2nc3cccnc3n2-c2ccc(F)cc2)CC1 |
| 1200 | O=C1CC(c2noc(-c3ccc(-c4ccccc4)cc3)n2)CN1c1ccc(F)cc1 (stereo not drawn) |
| 780 | CN(C)c1ccc(C(=O)N2CCCC(COc3ccc(C(=O)NC4CC4)cc3)C2)cc1 (stereo not drawn) |
| 665 | Cc1c(CNCCCN2CCCC2=O)c(C(=O)O)c(C)n1Cc1cccc(Cl)c1 |
| 973 | COc1ccc([N+](=O)[O-])cc1NC(=O)c1cnc(N2CCN(c3ncccn3)CC2)c2ccccc12 |
| 637 | CCn1c(C(=O)N2CCN(c3ccccn3)CC2)cc2c(=O)oc3ccccc3c21 |
| 670 | CCOC(=O)CSc1nc2ccccc2n1C |
| 889 | N#Cc1ccc(-n2cnc(C(=O)Nc3cccc(C(F)(F)F)c3)c2)cc1 |
| 692 | O=C(CCc1c(-c2ccccc2)nc2ccccn12)Nc1cccc(Cl)c1 |

| RP-LC retention time [s] | SMILES |
| --- | --- |
| 658 | Cn1c(N2CCCN(C(=O)COc3ccc(Cl)cc3)CC2)cc(=O)n(C)c1=O |
| 844 | CC(=O)N(Cc1nn(C)c2c1CN(S(=O)(=O)c1ccc(Cl)cc1)CC2)c1ccccc1 |
| 669 | COc1ccccc1CNC(=O)CCC1CCN(c2cc(NC3CC3)ncn2)CC1 |
| 928 | CCN1C(=O)NC(c2ccccc2C(F)(F)F)C2=C1CN(CCC(=O)NCCOC)C2=O (stereo not drawn) |
| 759 | CCn1cc(C2=CCN(C(=O)Nc3ccc(OC)c(OC)c3)CC2)c2cccnc21 |
| 815 | O=C([C@@H]1C[C@H](Oc2ccccc2)CN1C(=O)CCc1nc2ccccc2s1)N1CCCC1 |
| 1070 | CNC(=O)c1c(NC(=O)c2ccc(C)cc2)sc2c1CCC2 |
| 784 | Cc1c(Cl)cccc1NC(=O)C1CCCN(c2nnc(C)c3c(C)n(-c4ccccc4)nc23)C1 (stereo not drawn) |
| 726 | CCNC(=O)C1CCN(S(=O)(=O)c2cc(Cl)ccc2OC)CC1 |
| 638 | CCc1nc2c(c(=O)n1CC(=O)Nc1ccccc1)CN(Cc1ccccc1)CC2 |
| 743 | CC1CC(=O)Nc2ccccc2N1C(=O)c1ccc(Cl)cc1 (stereo not drawn) |
| 680 | CN(C)c1cccc(C(=O)N2CCCN(c3cc(-c4ccc5c(c4)OCO5)[nH]n3)CC2)c1 |
| 654 | O=C(C1CCN(c2ncnc3c2oc2ccccc23)CC1)N1CCCC1 |
| 806 | CSc1ccccc1NC(=O)c1cnc2ccc(C)cn2c1=O |
| 985 | CCc1cccc(NS(=O)(=O)c2ccc(-c3c(C)noc3C)cc2)c1 |
| 1200 | COc1ccc(-c2nnc3sc(-c4ccc(N(C)C)cc4)nn23)cc1 |
| 831 | COc1ccc(NC(=O)CCc2cccc3[nH]ccc23)c(OC)c1 |
| 885 | O=C(Nc1nnc(-c2ccc(C(F)(F)F)cc2)o1)c1cc2ccccc2o1 |
| 991 | O=S(=O)(c1cccc(-c2nnc(-c3ccc(F)cc3)o2)c1)N1CCCC1 |
| 640 | O=C(Cn1nc(Cc2cccnc2)c2ccccc2c1=O)NCC1COc2ccccc2O1 (stereo not drawn) |
| 1040 | O=C(Cn1cnc2onc(-c3ccc(F)cc3)c2c1=O)N1CCCc2ccccc21 |
| 613 | COc1ccc(Cl)cc1NC(=O)CSc1ccc(-n2ccnc2)nn1 |
